The record followed here is patent US20070202141A1, “Synthetic Aggregation Pheromone For Manipulating The Behaviour Of Codling Moth, Cydia Pomonella, Larvae” (PHERO TECH INC., priority 2004, published 2007).

Structures are written as SMILES.

This assay has as its system female Mastrus ridibundus antenna. Description: coupled gas chromatographic-electroantennographic detection (GC-EAD). The conditions noted are these: Porapak Q extract of cocoon-spinning larvae; FIG. 2. From the text:
Aliquots of 20 CSLHE of Porapak Q-captured volatiles were subjected to analysis by coupled gas chromatographic-electroantennographic detection (GC-EAD) (Arm et al. 1975) using an antenna of Mastrus ridibundus, a specialist parasitic wasp of C. pomonella prepupae, as the electroantennographic detector. Using antennae from female M. ridibundus, instead of C. pomonella larvae, in these analyses was necessary because the antennae of C. pomonella larvae are too small for electrophysiolocial studies. It was also justified because host-seeking female M. ridibundus respond to the pheromone produced by cocoon-spinning C. pomonella larvae. In these GC-EAD analyses, 10 components (8 visible in FIG. 2) elicited responses from M. ridibundus antennae.
FIG. 2 illustrates flame ionization detector (FID) and electroantennographic detector (EAD: female Mastrus ridibundus antenna) responses to 10 CSLHE of Porapak Q extract. Chromatography: Hewlett Packard (HP) 5890A gas chromatograph equipped with a fused silica column (30 m×0.32 mm ID) coated with DB-23 (J & W Scientific, Folsom, Calif. 95630, USA); linear flow velocity of carrier gas: 35 cm/sec; injector and FID detector temperature: 240° C.; temperature program: 1 min at 50° C., 10° C./min to 220° C. […]

Consider `C=C(C)C1CC=C(C)CC1` (single isomer, unassigned; (+)) [(+)-limonene], for which the “electroantennographic detector (EAD) response” value was “not antenally active”.
